In publication PMC6902473 (Clinical Epigenetics, 2019):
Where “and” joins values, the source holds several entries; their conditions need not be identical. Equal values may be shown once.

Assay: Plasma pharmacokinetics of vorinostat after oral administration (non-compartmental analysis)
Description: The assays were validated according to the common FDA and EMA guidelines on bioanalytical method validation.

[1] = 530 mg/m2/d oral, plasma, maximum of 3 values
[2] = 530 mg/m2/d oral, plasma, minimum of 3 values

**Q.** Which results are given for `O=C(CCCCCCC(=O)Nc1ccccc1)NO` [vorinostat]?
**A.** Clearance, Maximum [1]: 678 L/h; Cmax, Maximum [1]: 629 ng/mL; Clearance, Minimum [2]: 241 L/h; Cmax, Minimum [2]: 451 ng/mL; Vz, Minimum [2]: 508 L; t1/2 (dose level 130 mg/m2/d, mean): 2.16 h; t1/2 (dose level 130 mg/m2/d, median): 2.16 h; t1/2 (dose level 180 mg/m2/d, mean): 2.22 h; t1/2 (dose level 330 mg/m2/d, mean): 2.13 h; AUC(0-t) (human, in vivo, 130 mg/m2): 1140 ng·h/mL; Clearance (human, in vivo, 130 mg/m2): 167 L/h; Vz (human, in vivo, 130 mg/m2): 563 L; AUC(0-t) (human, in vivo, 130 mg/m2, AUClast): 4.32 µM·h and 970 ng·h/mL; Clearance (human, in vivo, 130 mg/m2, Clearance): 108 L/h; Cmax (human, in vivo, 130 mg/m2, Cmax): 1.02 µM and 269 ng/mL; Vd (human, in vivo, 130 mg/m2, Vz): 336 L; Clearance (human, in vivo, 180 mg/m2): 225 L/h; Tmax (human, in vivo, 180 mg/m2): 2.39 h; Vz (human, in vivo, 180 mg/m2): 681 L; t1/2 (human, in vivo, 180 mg/m2): 1.93 h; AUC(0-t) (human, in vivo, 180 mg/m2, AUClast): 3.75 µM·h and 992 ng·h/mL; Clearance (human, in vivo, 180 mg/m2, Clearance): 182 L/h; Cmax (human, in vivo, 180 mg/m2, Cmax): 1.06 µM and 281 ng/mL; Tmax (human, in vivo, 180 mg/m2, Tmax): 1.5 h; Vd (human, in vivo, 180 mg/m2, Vz): 490 L; Clearance (human, in vivo, 214 mg/m2): 399 L/h; AUC(0-t) (human, in vivo, 214 mg/m2, AUClast): 2.52 µM·h and 666 ng·h/mL; Clearance (human, in vivo, 214 mg/m2, Clearance): 399 L/h; Cmax (human, in vivo, 214 mg/m2, Cmax): 1.29 µM and 341 ng/mL; half-life (human, in vivo, 214 mg/m2, t1/2): 1.12 h; AUCtotal (human, in vivo, 230 mg/m2): 1310 ng·h/mL; Clearance (human, in vivo, 230 mg/m2): 257 L/h; Vz (human, in vivo, 230 mg/m2): 640 L; AUC(0-t) (human, in vivo, 230 mg/m2, AUClast): 4.89 µM·h and 1290 ng·h/mL; Clearance (human, in vivo, 230 mg/m2, Clearance): 221 L/h; Cmax (human, in vivo, 230 mg/m2, Cmax): 1.44 µM and 380 ng/mL; Tmax (human, in vivo, 230 mg/m2, Tmax): 1.5 h; Vd (human, in vivo, 230 mg/m2, Vz): 532 L; half-life (human, in vivo, 230 mg/m2, t1/2): 1.63 h; Clearance (human, in vivo, 250 mg/m2): 189 L/h; Tmax (human, in vivo, 250 mg/m2): 1.75 h; t1/2 (human, in vivo, 250 mg/m2): 1.48 h; AUC(0-t) (human, in vivo, 250 mg/m2, AUClast): 5.77 µM·h and 1520 ng·h/mL; Clearance (human, in vivo, 250 mg/m2, Clearance): 189 L/h; Tmax (human, in vivo, 250 mg/m2, Tmax): 1.75 h; Vd (human, in vivo, 250 mg/m2, Vz): 398 L; half-life (human, in vivo, 250 mg/m2, t1/2): 1.48 h; AUC(0-t) (human, in vivo, 280 mg/m2): 4.96 µM·h; Clearance (human, in vivo, 280 mg/m2): 195 L/h; Tmax (human, in vivo, 280 mg/m2): 2.09 h; t1/2 (human, in vivo, 280 mg/m2): 1.83 h; AUC(0-t) (human, in vivo, 280 mg/m2, AUClast): 1310 ng·h/mL and 6.33 µM·h; Clearance (human, in vivo, 280 mg/m2, Clearance): 207 L/h; Tmax (human, in vivo, 280 mg/m2, Tmax): 1.5 h; half-life (human, in vivo, 280 mg/m2, t1/2): 1.5 h; Clearance (human, in vivo, 330 mg/m2): 149 L/h; Tmax (human, in vivo, 330 mg/m2): 2.00 h; Vz (human, in vivo, 330 mg/m2): 427 L; AUC(0-t) (human, in vivo, 330 mg/m2, AUClast): 8.06 µM·h and 2130 ng·h/mL; Clearance (human, in vivo, 330 mg/m2, Clearance): 126 L/h; Cmax (human, in vivo, 330 mg/m2, Cmax): 1.83 µM and 483 ng/mL; Tmax (human, in vivo, 330 mg/m2, Tmax): 2.5 h; Vd (human, in vivo, 330 mg/m2, Vz): 429 L; half-life (human, in vivo, 330 mg/m2, t1/2): 1.89 h; AUC(0-t) (human, in vivo, 380 mg/m2, AUClast): 14.2 µM·h and 3750 ng·h/mL; Cmax (human, in vivo, 380 mg/m2, Cmax): 3.38 µM and 893 ng/mL; Tmax (human, in vivo, 380 mg/m2, Tmax): 4.3 h; Clearance (human, in vivo, 430 mg/m2): 174 L/h; Tmax (human, in vivo, 430 mg/m2): 1.00 h; t1/2 (human, in vivo, 430 mg/m2): 2.49 h; AUC(0-t) (human, in vivo, 430 mg/m2, AUClast): 6.39 µM·h and 1690 ng·h/mL; Clearance (human, in vivo, 430 mg/m2, Clearance): 174 L/h; Vd (human, in vivo, 430 mg/m2, Vz): 661 L; half-life (human, in vivo, 430 mg/m2, t1/2): 2.49 h; Clearance (human, in vivo, 480 mg/m2): 237 L/h; AUC(0-t) (human, in vivo, 480 mg/m2, AUClast): 14.2 µM·h and 3760 ng·h/mL; Clearance (human, in vivo, 480 mg/m2, Clearance): 237 L/h; Cmax (human, in vivo, 480 mg/m2, Cmax): 4.64 µM and 1230 ng/mL; Tmax (human, in vivo, 480 mg/m2, Tmax): 0.5 h; Vd (human, in vivo, 480 mg/m2, Vz): 421 L; Cmax (human, in vivo, Cmax): > 270 ng/mL; AUC0_0-inf/D (human, in vivo, po): 5.49 ± 2.75 (ng/mL*h)/(mg/d)
